Tests used:
Format in all cases: binding
[1] = target: T1, Or10a (Drosophila melanogaster, UniProt Q9VYZ1); assay: EIS sensor, Or10a nanodiscs on gold electrode (Example 4)
T1 sequence (Q9VYZ1 1-406): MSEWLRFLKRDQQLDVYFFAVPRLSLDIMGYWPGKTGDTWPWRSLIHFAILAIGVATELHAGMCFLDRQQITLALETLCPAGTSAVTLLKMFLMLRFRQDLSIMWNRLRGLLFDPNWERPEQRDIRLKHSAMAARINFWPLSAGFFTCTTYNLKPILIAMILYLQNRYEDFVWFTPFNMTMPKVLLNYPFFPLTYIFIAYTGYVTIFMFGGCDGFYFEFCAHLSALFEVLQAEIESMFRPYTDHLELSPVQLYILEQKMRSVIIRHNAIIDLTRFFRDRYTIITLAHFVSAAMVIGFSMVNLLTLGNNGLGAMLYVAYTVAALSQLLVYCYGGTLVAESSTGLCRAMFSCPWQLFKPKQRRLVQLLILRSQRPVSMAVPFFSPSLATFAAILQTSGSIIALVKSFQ

[2] = target: T2, OR35a (Drosophila melanogaster, UniProt Q9V3Q2); assay: CNT-FET sensor, OR35a nanodiscs via his-tag/Ni-NTA (Example 2); conditions: for real time source-drain current response: OR35a nanodiscs 1:10, E-2-hexenal at 64 pM, methyl hexanoate 70 nM to 500 μM
T2 sequence (Q9V3Q2 1-409): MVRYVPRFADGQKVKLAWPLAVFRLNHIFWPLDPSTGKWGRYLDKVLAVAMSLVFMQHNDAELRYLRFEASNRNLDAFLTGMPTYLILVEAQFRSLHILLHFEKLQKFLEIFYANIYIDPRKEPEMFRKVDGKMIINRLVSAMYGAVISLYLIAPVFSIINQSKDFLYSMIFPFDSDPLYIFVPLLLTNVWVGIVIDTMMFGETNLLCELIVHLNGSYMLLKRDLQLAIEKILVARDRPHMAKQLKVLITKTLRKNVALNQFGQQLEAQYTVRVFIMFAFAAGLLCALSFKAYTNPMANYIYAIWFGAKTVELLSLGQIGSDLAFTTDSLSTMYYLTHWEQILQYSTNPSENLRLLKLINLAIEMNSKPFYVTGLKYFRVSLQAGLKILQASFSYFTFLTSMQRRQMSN

[3] = target: T2, OR35a; assay: EIS sensor, Or35a liposomes on gold electrode (Example 1); conditions: Or35a liposomes, EIS
Experimental: Liposomes were prepared using a phospholipid solution produced by evaporating solutions containing: phosphatidylethanolamine (PE), phosphatidylserine (PS), phosphatidylcholine (PC), and cholesterol (CH) at a molar ratio of 5:3:3:1 in a small glass tube under a stream of N2 gas, then desiccating under vacuum for 1 h. […] To promote the formation of liposomes, 10 freeze/thaw steps were performed by transferring the tube from liquid nitrogen to a 40° C. water bath. Liposomes were then sized by passing the lipid solution 11 times through a 100-nm polycarbonate membrane using an Avestin LiposoFAST extruder unit (Avestin, Germany). Glycerol was added at 10% of the final volume and aliquots at 10 mg/mL were snap frozen in liquid nitrogen and stored at -80° C. Prior to their use, liposomes were defrosted on ice and then destabilized by incubating with 0.2% CHAPS for 15 min at room temperature. Then 200 μg of purified odorant receptor^14 was added to 1 mg of liposomes and rotated at 10 rpm for 1 h at room temperature. […] The Bio-Beads were removed after each incubation period. The OR integrated liposomes were pelleted by centrifugation at 100,000 g for 1 h, and were resuspended in 500 μL of rehydration buffer. Integration of OrXs into liposomes was assessed by density gradient ultracentrifugation (DGU) using Accudenz (Accurate Chemical & Scientific Corporation, USA). […] The sample was then centrifuged at 100,000 g for 4 h at 4° C. Liposomes will float to the top of the gradient after Accudenz DGU due to their low density. 1.3 Electrode Cleaning Gold disk (2 mm) electrodes were cleaned with polishing with Alumina paste for 2 minutes, ultra-sonicated in pure ethanol and then Milli-Q water for 5 minutes each. […] Charge transfer resistance (Rct) of electrodes were calculated by fitting obtained data to a Randles' equivalent circuit [Rs+CPE/(Rct+W)] comprising of a solution resistance (Rs) in series with a constant phase element (CPE) and in parallel with charge transfer resistance (Rct) and Warburg diffusion element. […]

[4] = target: T2, OR35a; assay: EIS sensor, Or35a nanodiscs on gold electrode (Example 4)

Compound	EIS response to control ligand [1]	concentration to which the sensor demonstrates a response in real time ([2]; OR35a nanodisc functionalized CNT FET) [pM]	real time source-drain current response [2]	ΔI/I0 change ([2]; at 64 pM, OR35a nanodiscs 1:10 dilution) [%]	EC50 ([2]; present study, Table 4) [nM]	Sensitivity limit ([2]; present study, Table 4) [pM]	concentration at which clear electronic response starts ([2]; real time current measurement mode) [fM]	EC50 [3] [nM]	Sensitivity limit (lowest detectable concentration) ([3]; signal/noise >3) [pM]	LOD ([4]; EIS) [fM]	LOD ([1]; EIS) [fM]	EIS response to control ligand [4]
CCC/C=C/C=O [E2-hexenal]	do not respond	64	immediate large decrease	10	~0.3	0.001	1	~10	36	< 1		
CCCCCC(=O)OC [methyl hexanoate]			no clear response									
COC(=O)c1ccccc1O [methyl salicylate]											10	does not respond
